In patent publication US20250262191A1, “NEW CRYSTAL FORM OF NITROGEN-CONTAINING TRICYCLIC COMPOUND AND USE THEREOF” (SUNSHINE LAKE PHARMA CO., LTD., priority 2021, published 2025):

Legend:
[1] = Pharmacokinetic experiment in Beagle dogs, oral capsules; assay type: in vivo; conditions: male Beagle dogs, 5 mg/kg
Protocol: The crystal form H of the compound having Formula (I) was filled into capsules, which were used for oral administration.
Three male Beagle dogs weighing 8-12 kg were orally administered with capsules containing the test sample at a dose of 5 mg/kg, and blood samples were taken at time points of 0.25 h, 0.5 h, 1.0 h, 2.0 h, 4.0 h, 6.0 h, 8.0 h and 24 h. Standard curve was plotted based on concentrations of the samples in a suitable range, the concentration of the test sample in the plasma sample was measured and quantified by AB SCIEX API4000 LC-MS/MS at MRM mode. Pharmacokinetic parameters were calculated according to drug concentration-time curve using a noncompartmental method by WinNonLin 6.3 software.

[2] = Stability experiment (high-temperature, high-humidity and photostability tests); assay type: physicochemical
Protocol: (1) High-temperature test: A batch of the test sample was taken into a flat weighing bottle, divided into ≤5 mm thick thin layer. The sample was placed at 60° C. for 30 days. The sample was then sampled at day 5, day 13 and day 30, and the change of the sample's color was observed. The purity of the sample was detected by HPLC.
(2) High-humidity test: A batch of the test sample was taken into a flat weighing bottle, divided into ≤5 mm thick thin layer. The sample was placed at 25° C., RH 90%±5% for 30 days. The sample was then sampled at day 5, day 13 and day 30, and the change of the sample's color was observed. The purity of the sample was detected by HPLC.
(3) Photostability test: A batch of the test sample was taken into a flat weighing bottle, divided into ≤5 mm thick thin layer. The sample was placed in an opened light box (with UV) at the illuminance […], UV light ≥0.7 w/m^2 for 30 days. The sample was then sampled at day 5, day 13 and day 30, and the change of the sample's color was observed. The purity of the sample was detected by HPLC.

[3] = Hygroscopicity experiment by dynamic moisture adsorption (DVS); assay type: physicochemical; conditions: relative humidity of 80%, 25° C.
Protocol: The hygroscopicity of the present invention is measured using the DVS INT-Std dynamic moisture and gas adsorption analyzer of the Surface Measurement Systems Company in UK. The humidity test range was 0%-95%, the air flow was 200 mL/min, the temperature was 25° C., test point: take one test point per […] 5% humidity.
An appropriate amount of the test sample was taken and the hygroscopicity of the test sample was tested by dynamic moisture adsorption device. The description of the hygroscopic characteristics and the definition of the hygroscopic weight gain (Appendix 9103 of Chinese Pharmacopoeia 2020 Edition, Guidelines for Drug Hygroscopicity Tests, experimental conditions: 25° C.±1° C., 80%±2% relative humidity) are described in the table below: […]

[4] = High-humidity 25° C., RH 90%±5%, day 5
[5] = High-humidity 25° C., RH 90%±5%, day 13
[6] = High-humidity 25° C., RH 90%±5%, day 30
[7] = High-temperature 60° C., day 13
[8] = High-temperature 60° C., day 30
[9] = Lighting (light box with UV), day 5
[10] = Lighting (light box with UV), day 13
[11] = Lighting (light box with UV), day 30

Structure (SMILES): O=C(O)c1ccc2c(c1)Oc1ccc(OCc3c(-c4c(Cl)cccc4Cl)noc3C3CC3)nc1C1(CC1)C2 [Crystal form H, 2-((5-cyclopropyl-3-(2,6-dichlorophenyl)isoxazol-4-yl)methoxy)-10H-spiro[benzo[6,7]oxepino[3,2-b]pyridine-11,1′-cyclopropane]-7-carboxylic acid]
- AUC(0-t) ([1]; dog, plasma): 1130 ng·h/mL
- Cmax ([1]; dog, plasma): 514 ng/mL
- Tmax ([1]; dog, plasma): 1.33 h
- exposure in Beagle dogs [1]: relatively large exposure
- Appearance [2, 4]: White
- Purity (HPLC) [2, 4]: 99.89%
- Appearance [2, 5]: White
- Purity (HPLC) [2, 5]: 99.92%
- Appearance [2, 6]: White
- Purity (HPLC) [2, 6]: 99.85%
- Appearance ([2]; High-temperature 60° C., day 5): White
- Purity (HPLC) ([2]; High-temperature 60° C., day 5): 99.89%
- Appearance [2, 7]: White
- Purity (HPLC) [2, 7]: 99.72%
- Appearance [2, 8]: White
- Purity (HPLC) [2, 8]: 99.86%
- Appearance [2, 9]: White
- Purity (HPLC) [2, 9]: 99.90%
- Appearance [2, 10]: White
- Purity (HPLC) [2, 10]: 99.91%
- Appearance [2, 11]: White
- Purity (HPLC) [2, 11]: 99.72%
- Appearance ([2]; day 0): White
- Purity (HPLC) ([2]; day 0): 99.83%
- crystal structure stability ([2]; high temperature conditions): remains basically unchanged
- crystal structure stability ([2]; high temperature, high humidity and/or lighting conditions): remains basically unchanged
- changes in the appearance and chemical purity ([2]; high-temperature, high-humidity and/or lighting): no obvious changes
- hygroscopic characteristics [3]: lightly hygroscopic
